# Measured values reported in patent publication US7572765B2, “Conformationally constrained parathyroid hormone (PTH) analogs” (The General Hospital Corporation, priority 2001, dated 2009).
# Square brackets hold non-standard residues; d marks the D form. Peptide text beside a SMILES is read from it. hArg = N=C(N)NCCCC[C@H](N)C(=O)O; Aib = CC(C)(N)C(=O)O
# Molecular target: T1, human P1R (Homo sapiens, UniProt Q03431)
# T1 construct: expressed in transfected cells; host or cells: HKRK-B28 (porcine kidney LLC-PK1, stably transfected)
# T1 sequence (Q03431 27-593): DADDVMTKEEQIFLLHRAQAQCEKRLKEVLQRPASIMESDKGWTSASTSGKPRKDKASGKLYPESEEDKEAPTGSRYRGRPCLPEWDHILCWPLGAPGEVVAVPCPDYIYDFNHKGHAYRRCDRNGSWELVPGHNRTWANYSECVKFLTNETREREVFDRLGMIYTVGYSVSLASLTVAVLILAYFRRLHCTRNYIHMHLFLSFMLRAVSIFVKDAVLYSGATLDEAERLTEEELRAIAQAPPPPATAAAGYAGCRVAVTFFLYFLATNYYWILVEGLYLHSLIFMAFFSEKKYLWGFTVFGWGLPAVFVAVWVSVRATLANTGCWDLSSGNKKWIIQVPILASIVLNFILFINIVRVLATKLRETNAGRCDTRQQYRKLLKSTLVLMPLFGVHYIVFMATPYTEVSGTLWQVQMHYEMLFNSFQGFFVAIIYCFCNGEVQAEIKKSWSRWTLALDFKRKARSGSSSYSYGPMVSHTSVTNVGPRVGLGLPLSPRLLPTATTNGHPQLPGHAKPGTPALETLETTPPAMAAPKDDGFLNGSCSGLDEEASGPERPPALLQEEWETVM
# Assay: cAMP stimulation in HKRK-B28 cells
# Assay type: cell-based
# Conditions: basal 4.0 ± 0.1 pmole/well not subtracted
# Procedure: Cell Culture. The cell line HKRK-B28 (Takasu, H., et al., J. Bone Miner. Res. 14:11-20 (1999)) was derived from the porcine kidney cell line, LLC-PK1 by stable transfection with plasmid DNA encoding the human P1R and expresses ˜280,000 receptors per cell. These cells, as well as COS-7 cells and SaOS-2-B10 cells, were cultured at […] in T-75 flasks ([…]) in Dulbecco's modified Eagle's medium (DMEM) supplemented with fetal bovine serum (10%), penicillin G (20 units/ml), streptomycin sulfate (20 μg/ml) and amphotericin B (0.05 μg/ml) in a humidified atmosphere containing 5% CO2. Stock solutions of EGTA/trypsin and antibiotics were from GIBCO; fetal bovine serum was from Hyclone Laboratories (Logan, Utah). COS-7 cells sub-cultured in 24-well plates were transfected with plasmid DNA (200 ng per well) encoding the wild-type human P1R or truncated human P1R deleted for residues (24-181) (Shimizu, M., et al., J. Biol. Chem. 275:21836-21843 (2000)) that was purified by cesium chloride/ethidium bromide density gradient centrifugation, and FuGENE 6 transfection reagent (Roche Indianapolis Ind.) according to the manufacturer's recommended procedure. All cells, in 24-well plates, were treated with fresh media and shifted to 33° C. for 12 to 24 h prior to assay.
# cAMP Stimulation. Stimulation of cells with peptide analogs was performed in 24-well plates. Cells were rinsed with 0.5 mL of binding buffer (50 mM Tris-HCI, […], 5 mM KCl, 2 mM CaCl2, 5% heat-inactivated horse serum, 0.5% fetal bovine serum, adjusted to pH 7.5 with HCl) and treated with 200 μL of cAMP assay buffer (Delbecco's modified Eagle's medium containing 2 mM 3-isobutyl-1-methylxanthine, 1 mg/mL bovine serum albumin, 35 mM Hepes-NaOH, pH 7.4) and 100 μL of binding buffer containing varying amounts of peptide analog (final volume=300 μL). The medium was removed after incubation for 30 to 60 minutes at room temperature, and the cells were frozen on dry ice, lysed with 0.5 mL 50 mM HCl, and refrozen ([…]). The cAMP content of the diluted lysate was determined by radioimmunoassay. The EC50 response values were calculated using nonlinear regression (see below).
# Data Calculation. Calculations were performed using Microsoft® Excel. Nonlinear regression analyses of binding and cAMP dose-response data were performed using the four-parameter equation: yp=Min+[(Max−Min)/(1+(IC50/x)^slope)]. The Excel Solver function was utilized for parameter optimization, as described previously (Carter, P. H., et al., Endocrinology 140: 4972-4981 (1999); Bowen, W. P., and Jerman, J. C., Trends in Pharmacol. Sci. 16: 413-417 (1995)). Differences between paired data sets were statistically evaluated using a one-tailed Student's t-test, assuming unequal variances for the two sets.
row,Structure (SMILES),cAMP EMax(obs.)
1,CC[C@H](C)[C@H](NC(=O)[C@H](CCC(=O)O)NC(=O)[C@H](C)NC(=O)C(C)(C)NC(=O)[C@H](C)N)C(=O)N[C@@H](CCC(N)=O)C(=O)N[C@@H](CC(C)C)C(=O)N[C@@H](CCSC)C(=O)N[C@@H](Cc1c[nH]cn1)C(=O)N[C@@H](CCC(N)=O)C(=O)N[C@@H](CCCCNC(=N)N)C(=O)N[C@@H](C)C(=O)N[C@@H](CCCCN)C(=O)N[C@@H](Cc1c[nH]c2ccccc12)C(N)=O [Aib-2] (H-A[Aib]AEIQLMHQ[hArg]AKW-NH2),168 ± 6 pmole/well
2,CC[C@H](C)[C@H](NC(=O)C(C)(C)NC(=O)[C@H](C)NC(=O)[C@@H](NC(=O)[C@H](C)N)C(C)C)C(=O)N[C@@H](CCC(N)=O)C(=O)N[C@@H](CC(C)C)C(=O)N[C@@H](CCSC)C(=O)N[C@@H](Cc1c[nH]cn1)C(=O)N[C@@H](CCC(N)=O)C(=O)N[C@@H](CCCCNC(=N)N)C(=O)N[C@@H](C)C(=O)N[C@@H](CCCCN)C(=O)N[C@@H](Cc1c[nH]c2ccccc12)C(N)=O [Aib-4] (H-AVA[Aib]IQLMHQ[hArg]AKW-NH2),221 ± 10 pmole/well
3,CC[C@H](C)[C@H](NC(=O)[C@H](CCC(=O)O)NC(=O)[C@H](C)NC(=O)[C@@H](NC(=O)[C@H](C)N)C(C)C)C(=O)NC(C)(C)C(=O)N[C@@H](CC(C)C)C(=O)N[C@@H](CCSC)C(=O)N[C@@H](Cc1c[nH]cn1)C(=O)N[C@@H](CCC(N)=O)C(=O)N[C@@H](CCCCNC(=N)N)C(=O)N[C@@H](C)C(=O)N[C@@H](CCCCN)C(=O)N[C@@H](Cc1c[nH]c2ccccc12)C(N)=O [Aib-6] (H-AVAEI[Aib]LMHQ[hArg]AKW-NH2),116 ± 12 pmole/well
4,CC[C@H](C)[C@H](NC(=O)[C@H](CCC(=O)O)NC(=O)[C@H](C)NC(=O)[C@@H](NC(=O)[C@H](C)N)C(C)C)C(=O)N[C@@H](CCC(N)=O)C(=O)NC(C)(C)C(=O)N[C@@H](CCSC)C(=O)N[C@@H](Cc1c[nH]cn1)C(=O)N[C@@H](CCC(N)=O)C(=O)N[C@@H](CCCCNC(=N)N)C(=O)N[C@@H](C)C(=O)N[C@@H](CCCCN)C(=O)N[C@@H](Cc1c[nH]c2ccccc12)C(N)=O [Aib-7] (H-AVAEIQ[Aib]MHQ[hArg]AKW-NH2),275 ± 8 pmole/well
5,CC[C@H](C)[C@H](NC(=O)[C@H](CCC(=O)O)NC(=O)[C@H](C)NC(=O)[C@@H](NC(=O)[C@H](C)N)C(C)C)C(=O)N[C@@H](CCC(N)=O)C(=O)N[C@@H](CC(C)C)C(=O)N[C@@H](CCSC)C(=O)N[C@@H](Cc1c[nH]cn1)C(=O)NC(C)(C)C(=O)N[C@@H](CCCCNC(=N)N)C(=O)N[C@@H](C)C(=O)N[C@@H](CCCCN)C(=O)N[C@@H](Cc1c[nH]c2ccccc12)C(N)=O [Aib-10] (H-AVAEIQLMH[Aib][hArg]AKW-NH2),214 ± 22 pmole/well
6,CC[C@H](C)[C@H](NC(=O)[C@H](CCC(=O)O)NC(=O)[C@H](C)NC(=O)[C@@H](NC(=O)[C@H](C)N)C(C)C)C(=O)N[C@@H](CCC(N)=O)C(=O)N[C@@H](CC(C)C)C(=O)N[C@@H](CCSC)C(=O)N[C@@H](Cc1c[nH]cn1)C(=O)N[C@@H](CCC(N)=O)C(=O)N[C@@H](CCCCNC(=N)N)C(=O)NC(C)(C)C(=O)N[C@@H](CCCCN)C(=O)N[C@@H](Cc1c[nH]c2ccccc12)C(N)=O [Aib-12] (H-AVAEIQLMHQ[hArg][Aib]KW-NH2),263 ± 9 pmole/well
7,CC[C@H](C)[C@H](NC(=O)[C@H](CCC(=O)O)NC(=O)[C@H](C)NC(=O)[C@@H](NC(=O)[C@H](C)N)C(C)C)C(=O)N[C@@H](CCC(N)=O)C(=O)N[C@@H](CC(C)C)C(=O)N[C@@H](CCSC)C(=O)N[C@@H](Cc1c[nH]cn1)C(=O)N[C@@H](CCC(N)=O)C(=O)N[C@@H](CCCCNC(=N)N)C(=O)N[C@@H](C)C(=O)NC(C)(C)C(=O)N[C@@H](Cc1c[nH]c2ccccc12)C(N)=O [Aib-13] (H-AVAEIQLMHQ[hArg]A[Aib]W-NH2),259 ± 10 pmole/well
